Assay results taken from patent US11339161B2, “Triazolo pyridines as modulators of gamma-secretase” (Boehringer Ingelheim International GmbH, priority 2017, dated 2022).
Like-named read-outs stand apart in the source and are kept apart here.

Key:
Aβ total = Aβ total levels in H4 neuroglioma cells stably expressing human APP695 (MSD electrochemiluminescence); assay type: cell-based; conditions: selectivity ratio vs. Aβtotal, Table 4a
Method in brief: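 H4 cells expressing human APP695, plated near confluency, exposed 22 h at 37 °C to compounds over 30 μM–0.1 nM (0.5% DMSO final). Supernatant Aβ total quantified by MSD electrochemiluminescence immunoassay.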

AURKA (Aurora A) = molecular target: T1, AURKA (Aurora A) (Homo sapiens, UniProt O14965); experiment: Z'-LYTE SelectScreen biochemical kinase assay AURKA (Aurora A)
T1 sequence (O14965 1-403): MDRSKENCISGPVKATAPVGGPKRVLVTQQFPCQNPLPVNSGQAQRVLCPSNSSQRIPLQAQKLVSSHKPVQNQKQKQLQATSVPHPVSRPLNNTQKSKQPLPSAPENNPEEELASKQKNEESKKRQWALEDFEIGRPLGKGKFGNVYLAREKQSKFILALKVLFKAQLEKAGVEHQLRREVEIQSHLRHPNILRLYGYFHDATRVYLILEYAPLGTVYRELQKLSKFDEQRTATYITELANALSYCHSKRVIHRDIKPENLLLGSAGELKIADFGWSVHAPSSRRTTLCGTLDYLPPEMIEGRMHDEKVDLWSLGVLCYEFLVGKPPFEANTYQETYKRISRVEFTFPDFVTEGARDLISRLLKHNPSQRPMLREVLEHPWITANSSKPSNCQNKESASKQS
Description: (§1) Thermo Fisher Scientific SelectScreen™ Biochemical Kinase Profiling Service Z′-LYTE™ Screening Protocol and Assay Conditions Assay Theory
(§2) The […] biochemical assay employs a fluorescence-based, coupled-enzyme format and is based on the differential sensitivity of phosphorylated and non-phosphorylated peptides to proteolytic cleavage. The peptide substrate is labeled with two fluorophores—one at each end—that make up a FRET pair. In the primary reaction, the kinase transfers the gamma-phosphate of ATP to a single tyrosine, serine or threonine residue in a synthetic FRET-peptide. In the secondary reaction, a site-specific protease recognizes and cleaves non-phosphorylated FRET-peptides. Phosphorylation of FRET-peptides suppresses cleavage by the Development Reagent. Cleavage disrupts FRET between the donor (i.e., coumarin) and acceptor (i.e., fluorescein) fluorophores on the FRET-peptide, whereas uncleaved, phosphorylated FRET-peptides maintain FRET. A ratiometric method, which calculates the ratio (Emission Ratio=Coumarin emission (445 nm)/Fluorescein emission (520 nm)) of donor emission to acceptor emission after excitation of the donor fluorophore at 400 nm, is used to quantitate reaction progress, as shown in the equation below. A significant benefit of this ratiometric method for quantitating reaction progress is the elimination of well-to-well variations in FRET-peptide concentration and signal intensities. As a result, the assay yields very high Z′-factor values (>0.7) at a low percent phosphorylation. Both cleaved and uncleaved FRET-peptides contribute to the fluorescence signals and therefore to the Emission Ratio. The extent of phosphorylation of the FRET-peptide can be calculated from the Emission Ratio. The Emission Ratio will remain low if the FRET-peptide is phosphorylated (i.e., no kinase inhibition) and will be high if the FRET-peptide is non-phosphorylated (i.e., kinase inhibition).
(§3) The Test Compounds are screened in 1% DMSO (final) in the well. For 10 point titrations, 3-fold serial dilutions are conducted from the starting concentration of the customer's choosing.
(§4) All Peptide/Kinase Mixtures are diluted to a 2× working concentration in the appropriate Kinase Buffer (see section Kinase Specific Assay Conditions for a complete description).
(§5) All ATP Solutions are diluted to a 4× working concentration in Kinase Buffer (50 mM HEPES pH 7.5, 0.01% BRIJ-35, 10 mM MgCl2, 1 mM EGTA). ATP Km apparent is previously determined using a Z″-LYTE assay.
(§6) The Development Reagent is diluted in Development Buffer (see section Kinase-Specific Assay Conditions—Direct and Cascade for a complete description).
(§7) Bar-coded Corning, low volume NBS, black 384-well plate (Corning Cat. #4514) • 1. 100 nL—100× Test Compound in 100% DMSO • 2. 2.4 μL—Kinase buffer • 3. 5 μL—2× Peptide/Kinase Mixture • 4. 2.5 μL—4×ATP Solution • 5. 30—second plate shake • 6. 60—minute Kinase Reaction incubation at room temperature • 7. 5 μL—Development Reagent Solution • 8. 30—second plate shake • 9. 60—minute Development Reaction incubation at room temperature • 10. Read on fluorescence plate reader and analyze the data Z′-LYTE Assay Controls
(§8) SelectScreen Kinase Profiling Service uses XLfit from IDBS. The dose response curve is curve fit to model number 205 (sigmoidal dose-response model).
The 2×AURKA (Aurora A)/Ser/Thr 01 mixture is prepared in 50 mM HEPES pH 7.5, 0.01% BRIJ-35, 10 mM MgCl2, 1 mM EGTA. The final 10 μL Kinase Reaction consists of 0.91-8.56 ng AURKA (Aurora A) and 2 μM Ser/Thr 01 in 50 mM HEPES pH 7.5, 0.01% BRIJ-35, 10 mM MgCl2, 1 mM EGTA. After the 1 hour Kinase Reaction incubation, 5 μL of a 1:4096 dilution of Development Reagent A is added.

FLT4 (VEGFR3) = FLT4 (VEGFR3) (Homo sapiens, UniProt P35916); experiment: Z'-LYTE SelectScreen biochemical kinase assay FLT4 (VEGFR3)
Description: as §1, §2, §3, §4, §5, §6, §7, §8
The 2×FLT4 (VEGFR3)/Tyr 04 mixture is prepared in 50 mM HEPES pH 7.5, 0.01% BRIJ-35, 10 mM MgCl2, 4 mM MnCl2, 1 mM EGTA, 2 mM DTT. The final 10 μL Kinase Reaction consists of 2-10.5 ng FLT4 (VEGFR3) and 2 μM Tyr 04 in 50 mM HEPES pH 7.5, 0.01% BRIJ-35, 10 mM MgCl2, 2 mM MnCl2, 1 mM EGTA, 1 mM DTT. After the 1 hour Kinase Reaction incubation, 5 μL of a 1:64 dilution of Development Reagent B is added.

[1] = 10 μmolar compound concentration, ATP at Km app, read-out: AURKA (Aurora A) inhibition
[2] = read-out: % Inhibition mean AURKA (Aurora A)
[3] = 10 μmolar compound concentration, ATP at Km app, read-out: FLT4 (VEGFR3) inhibition
[4] = read-out: % Inhibition mean FLT4 (VEGFR3)

Chain of FLT4 (VEGFR3) (P35916 25-1363): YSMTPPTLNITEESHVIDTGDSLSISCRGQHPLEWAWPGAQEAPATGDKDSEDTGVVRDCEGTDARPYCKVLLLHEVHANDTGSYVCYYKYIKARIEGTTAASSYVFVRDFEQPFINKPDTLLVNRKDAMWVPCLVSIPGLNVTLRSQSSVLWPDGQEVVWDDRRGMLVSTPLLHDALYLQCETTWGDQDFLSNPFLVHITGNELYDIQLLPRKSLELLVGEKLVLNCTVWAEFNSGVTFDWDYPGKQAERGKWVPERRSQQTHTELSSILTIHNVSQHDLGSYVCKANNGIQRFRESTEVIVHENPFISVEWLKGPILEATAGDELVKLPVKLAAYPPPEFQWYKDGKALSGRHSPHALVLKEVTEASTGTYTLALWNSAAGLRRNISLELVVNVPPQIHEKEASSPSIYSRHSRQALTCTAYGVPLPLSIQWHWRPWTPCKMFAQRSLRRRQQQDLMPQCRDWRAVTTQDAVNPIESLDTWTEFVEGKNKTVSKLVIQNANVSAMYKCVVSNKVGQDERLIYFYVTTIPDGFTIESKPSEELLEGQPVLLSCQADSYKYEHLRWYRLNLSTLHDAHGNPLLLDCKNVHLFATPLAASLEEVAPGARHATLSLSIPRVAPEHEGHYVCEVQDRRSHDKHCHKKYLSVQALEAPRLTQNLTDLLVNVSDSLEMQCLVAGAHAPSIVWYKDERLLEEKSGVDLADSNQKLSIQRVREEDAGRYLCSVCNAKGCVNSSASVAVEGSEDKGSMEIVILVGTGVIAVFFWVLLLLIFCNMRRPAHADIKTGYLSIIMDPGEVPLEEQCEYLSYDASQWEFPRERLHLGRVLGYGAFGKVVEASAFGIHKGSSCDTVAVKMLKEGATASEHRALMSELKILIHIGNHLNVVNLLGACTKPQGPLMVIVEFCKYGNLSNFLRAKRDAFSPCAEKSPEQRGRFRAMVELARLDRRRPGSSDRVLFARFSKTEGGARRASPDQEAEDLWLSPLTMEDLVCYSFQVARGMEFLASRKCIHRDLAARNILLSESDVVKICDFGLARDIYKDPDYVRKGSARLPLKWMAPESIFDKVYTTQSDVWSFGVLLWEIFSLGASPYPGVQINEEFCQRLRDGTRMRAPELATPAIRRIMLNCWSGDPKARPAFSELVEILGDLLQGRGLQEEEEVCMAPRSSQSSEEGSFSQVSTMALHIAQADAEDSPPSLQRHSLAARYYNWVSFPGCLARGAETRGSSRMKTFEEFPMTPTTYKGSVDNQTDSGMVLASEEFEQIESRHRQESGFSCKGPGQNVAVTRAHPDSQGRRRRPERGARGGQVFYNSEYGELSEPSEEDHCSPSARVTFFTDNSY

inhibition at 10 µM (AURKA (Aurora A); [1]) [%] | inhibition at 10 µM (AURKA (Aurora A); [2]) [%] | inhibition at 10 µM (FLT4 (VEGFR3); [3]) [%] | inhibition at 10 µM (FLT4 (VEGFR3); [4]) [%] | Structure (SMILES) | Ratio AβTotal IC50/Aβ42 IC50 (Aβ total)
< 40 | 18 | < 40 | 38 | CCc1nn(C)c2c1CCC(Nc1nc3c(-c4ccc(F)cc4C)cccn3n1)C2 (stereo not drawn) [Example 54, (3-Ethyl-1-methyl-4,5,6,7-tetrahydro-1H-indazol-6-yl)-[8-(4-fluoro-2-methyl-phenyl)-[1,2,4]triazolo[1,5-a]pyridine-2-yl]-amine] | 10
< 40 | -8 | < 40 | 21 | CCn1ncc2c1CC[C@@H](Nc1nc3c(-c4ccc(F)c(Cl)c4)cccn3n1)C2 [Example R-61, (R)-[8-(3-Chloro-4-fluoro-phenyl)-[1,2,4]triazolo[1,5-a]pyridine-2-yl]-(1-ethyl-4,5,6,7-tetrahydro-1H-indazol-5-yl)-amine] | 1098
< 40 | -2 | < 40 | 31 | CCn1ncc2c1CCC(Nc1nc3c(-c4ccc(F)cc4C)cccn3n1)C2 (stereo not drawn) [Example 42, (1-Ethyl-4,5,6,7-tetrahydro-1H-indazol-5-yl)-[8-(4-fluoro-2-methyl-phenyl)-[1,2,4]triazolo[1,5-a]pyridine-2-yl]-amine] | 23
< 40 | 6 | < 40 | 33 | CCn1ncc2c1CCC(Nc1nc3c(-c4ccc(C)nc4)cccn3n1)C2 (stereo not drawn) [Example 67, (1-Ethyl-4,5,6,7-tetrahydro-1H-indazol-5-yl)-[8-(6-methyl-pyridin-3-yl)-[1,2,4]triazolo[1,5-a]pyridine-2-yl]-amine] | 45
< 40 | 8 | < 40 | 15 | CCn1nnc2c1CCC(Nc1nc3c(-c4ccc(F)cc4C)cccn3n1)C2 (stereo not drawn) [Example 51, (1-Ethyl-4,5,6,7-tetrahydro-1H-benzotriazol-5-yl)-[8-(4-fluoro-2-methyl-phenyl)-[1,2,4]triazolo[1,5-a]pyridine-2-yl]-amine] | 2
< 40 | -14 | < 40 | 33 | CCn1ncc2c1C(C)CC(Nc1nc3c(-c4cc(F)c(F)c(F)c4)cccn3n1)C2 (stereo not drawn) [Example 49, (1-Ethyl-7-methyl-4,5,6,7-tetrahydro-1H-indazol-5-yl)-[8-(3,4,5-trifluoro-phenyl)-[1,2,4]triazolo[1,5-a]pyridine-2-yl]-amine] | 15
